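Exposure lasted 48 hours, with cells grown in 96-well plates and compounds tested at five concentrations. Here, GI50 denotes the concentration required for 50% inhibition of growth.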 The source made the active and inactive calls. Rule as the data show it: active = GI50 up to about 1.1 µM and inactive = higher.
Assays:
Experiment in all cases: NCI tumour cell line growth inhibition, 48 h
M14 = tested on: M14
CCRF-CEM = tested on: CCRF-CEM
TK-10 = tested on: TK-10
SF-295 = tested on: SF-295
K562 = tested on: K562
IGROV-1 = tested on: IGROV-1
NCI/ADR-RES = tested on: NCI/ADR-RES
SN12C = tested on: SN12C
BT-549 = tested on: BT-549
HCT-116 = tested on: HCT-116
MDA-N = tested on: MDA-N
NCI-H522 = tested on: NCI-H522
786-0 = tested on: 786-0
UACC-62 = tested on: UACC-62
HOP-62 = tested on: HOP-62
RPMI-8226 = tested on: RPMI-8226
LOX IMVI = tested on: LOX IMVI
CAKI-1 = tested on: CAKI-1
SK-MEL-2 = tested on: SK-MEL-2
A498 = tested on: A498

Measured: GI50

Cc1ccn2c(=O)cc(-c3ccccc3)nc2c1
inactive: M14 > 100 µM | CCRF-CEM > 100 µM | TK-10 > 100 µM | SF-295 > 100 µM | K562 > 100 µM | IGROV-1 > 100 µM | NCI/ADR-RES 72.3 µM | SN12C 93.8 µM | BT-549 > 100 µM | HCT-116 > 100 µM | MDA-N > 100 µM | NCI-H522 55.2 µM | 786-0 > 100 µM | UACC-62 18.7 µM | HOP-62 > 100 µM | RPMI-8226 > 100 µM

[O-][N+]1=C2CCC/C(=N/O)C2(O)C2CCCCC21N1CCOCC1 (stereo not given)
inactive: M14 > 100 µM | CCRF-CEM > 100 µM | LOX IMVI > 100 µM | CAKI-1 > 100 µM | TK-10 > 100 µM | SF-295 > 100 µM | K562 > 100 µM | IGROV-1 > 100 µM | NCI/ADR-RES > 100 µM | SN12C > 100 µM | BT-549 > 100 µM | HCT-116 > 100 µM | MDA-N > 100 µM | NCI-H522 > 100 µM | 786-0 > 100 µM | UACC-62 > 100 µM | HOP-62 > 100 µM | SK-MEL-2 > 100 µM

C[N+]1(CCN=C=NC2CCCCC2)CCOCC1
inactive: M14 > 100 µM | CCRF-CEM > 100 µM | LOX IMVI > 100 µM | CAKI-1 > 100 µM | TK-10 > 100 µM | SF-295 > 100 µM | A498 > 100 µM | K562 > 100 µM | IGROV-1 > 100 µM | NCI/ADR-RES > 100 µM | SN12C 22.9 µM | BT-549 > 100 µM | HCT-116 > 100 µM | NCI-H522 > 100 µM | 786-0 > 100 µM | UACC-62 > 100 µM | HOP-62 > 100 µM | SK-MEL-2 > 100 µM | RPMI-8226 > 100 µM

CSC1=C(C#N)C(=O)N(c2ccc(Cl)cc2)C(=O)C1C#N (stereo not given)
inactive: M14 96.4 µM | CCRF-CEM 44.9 µM | LOX IMVI > 100 µM | CAKI-1 > 100 µM | TK-10 > 100 µM | SF-295 87.1 µM | A498 74.6 µM | K562 78.9 µM | IGROV-1 > 100 µM | SN12C > 100 µM | BT-549 > 100 µM | HCT-116 > 100 µM | MDA-N > 100 µM | NCI-H522 > 100 µM | 786-0 > 100 µM | UACC-62 > 100 µM | HOP-62 > 100 µM | SK-MEL-2 > 100 µM | RPMI-8226 33.8 µM

O=c1ssc(Cl)c1Nc1c(Cl)ssc1=O
inactive: M14 19.2 µM | CCRF-CEM 3.78 µM | LOX IMVI 14.8 µM | CAKI-1 15.2 µM | TK-10 19 µM | SF-295 41.4 µM | A498 17.8 µM | K562 6.44 µM | IGROV-1 18.2 µM | NCI/ADR-RES 27.2 µM | SN12C 19.5 µM | BT-549 18.7 µM | HCT-116 17.5 µM | NCI-H522 19.6 µM | 786-0 17.8 µM | UACC-62 > 40.7 µM | HOP-62 20.7 µM | SK-MEL-2 19.4 µM | RPMI-8226 9.08 µM

CC1CCC2(NC1)OC1CC3C4CC=C5CC(OC6OC(CO)C(OC7OC(C)C(O)C(O)C7O)C(O)C6OC6OC(C)C(O)C(O)C6O)CCC5(C)C4CCC3(C)C1C2C (stereo not given)
inactive: M14 2.39 µM | CCRF-CEM 15 µM | LOX IMVI 5.79 µM | CAKI-1 4.36 µM | TK-10 5.31 µM | SF-295 2.08 µM | A498 5.74 µM | K562 4.11 µM | IGROV-1 5.82 µM | SN12C 2.24 µM | BT-549 15.6 µM | HCT-116 2.31 µM | MDA-N 2.37 µM | NCI-H522 1.7 µM | 786-0 1.99 µM | UACC-62 3.02 µM | HOP-62 4.09 µM | SK-MEL-2 3.63 µM | RPMI-8226 12.8 µM

Cc1ccc(N/C(=C(/C(Cl)=C(Cl)Cl)[N+](=O)[O-])n2nnc3ccccc32)cc1
inactive: M14 16.6 µM | CCRF-CEM 7.06 µM | CAKI-1 17.7 µM | SF-295 20.1 µM | K562 23.6 µM | NCI/ADR-RES 27.2 µM | SN12C 20.4 µM | BT-549 17.7 µM | HCT-116 30 µM | MDA-N 18.9 µM | 786-0 20.8 µM | HOP-62 18.2 µM | SK-MEL-2 17.7 µM | RPMI-8226 20.2 µM

Cc1cnoc1NS(=O)(=O)c1ccc(Nc2nnc(/C=C/c3c(O)ccc4ccccc34)c(=O)n2N)cc1
inactive: M14 25.9 µM | CCRF-CEM 10.9 µM | LOX IMVI 19.1 µM | CAKI-1 27.5 µM | SF-295 64 µM | K562 24.2 µM | IGROV-1 12.8 µM | NCI/ADR-RES 11.5 µM | SN12C 29.4 µM | BT-549 18.7 µM | HCT-116 22 µM | MDA-N 25.4 µM | 786-0 35.1 µM | UACC-62 24.5 µM | HOP-62 46 µM | RPMI-8226 20.2 µM
